In US9682947B2, “Substituted lactones for treating cancer” (KUNMING INSTITUTE OF BOTANY, CHINESE ACADEMY OF SCIENCES, priority 2013, dated 2017):
“Also recorded” adds a separate entry of the source.

Columns and labels:
HCT116 wild-type cells = test: Flow cytometry assay with propidium iodide staining (apoptosis); assay type: cell-based, human; conditions: 48 h; for cell apoptosis: HCT116 WT
Procedure: (§1) Flow cytometry assay was assessed as previously described in reference (1.26). After the time periods indicated, the Compound X-treated and control cells were harvested and fixed in 75% ethanol. The fixed cells were stained in the buffer containing 0.1% Triton X-100, 0.2 mg/ml RNase A, and 50 μg/ml PI (propidium iodide) at 4° C. for 1 hour and were then examined by flow cytometry utilizing an Epics XL FACS (Beckman Coulter Inc., Miami, Fla.) and EXPO 32 software as described previously (1.26).
(§2) Flow cytometry assay was carried out as described in Example 1.

DLD-1 cells [1] = test: as above; assay type: cell-based, human; conditions: DLD-1, 16 μM or 32 μM, 48 hours
Procedure: as §1, §2

HT-29 cells [2] = test: as above; assay type: cell-based, human; conditions: HT-29, 16 μM or 32 μM, 48 hours
Procedure: as §1, §2

PUMA = test: Western Blot, PUMA induction in WT and p53−/− HCT116 cells; assay type: cell-based, human; conditions: 16 μM
Procedure: (§3) Cellular protein extracts were prepared with cell lysis buffer (10 mM Tris-HCl, pH 7.4, 1% SDS, 1 mM Na3VO4) and resolved by SDS-PAGE. The membranes were probed with the indicated primary antibodies and HRP-conjugated secondary antibody. Signals were detected with the ECL western-blotting system as described in our previous reports (1.27, 1.28).
(§4) See Example 1 for the method.

PHLPP1 = test: Western blot, PHLPP1 protein expression in HCT116 cells; assay type: cell-based, human; conditions: HCT116, 16 μM
Procedure: as §3, §4

HCT116 PUMA−/− cells [3] = test: Flow cytometry assay with propidium iodide staining (apoptosis); assay type: cell-based; conditions: Homo sapiens, HCT-116, 48 h, read-out: inhibition of cell apoptosis in PUMA−/− cells as compared to HCT116 WT
Procedure: as §1, §2

FoxO3a = FoxO3a transcription activity dependent luciferase (4×DBE) reporter assay in HCT116 cells; assay type: cell-based, human; conditions: HCT116, 16 μM
Procedure: (§5) HCT116 cells stably expressing the luciferase reporter constructs were seeded into 96-well plates (5×10^3/well) and subjected to compound treatment when the cultures reached 80˜90% confluence. Cellular lysates were prepared at the indicated time points, and the luciferase activities were determined by a luminometer (Wallac 1420 Victor 2 multilabel counter system) as described in our previous studies (2.24, 2.25). The results are expressed as a relative activity that is normalized to the control cells without treatment.

Cl41 cells [4] = test: Cell cycle assay (flow cytometry, PI); assay type: cell-based, mouse; conditions: 24 h, control 63.49%
Procedure: Cell cycle assay was assessed as previously described in reference (3.16). After the time periods indicated, the Compound X-treated and control cells were harvested and fixed in 75% ethanol. The fixed cells were stained with propidium iodide (PI) solution at 4° C. for 30 minutes and were then examined by flow cytometry utilizing an Epics XL FACS (Beckman Coulter Inc., Miami, Fla.) and EXPO 32 software as described previously (3.17).
To assess whether the inhibitory effects of Compound F on growth inhibition of Cl41 cells is mediated via alteration in cell cycle regulation, the inventors evaluated the effect of Compound F2 on cell cycle distribution. The Cl41 cells were synchronized by 0.1% FBS medium for 24 h, and then cultured with 1% FBS medium containing 8, 16, 32 μM of Compound F2 for 24 h.

p53, p21 and Bax = test: Western Blotting, p53, p21 and Bax expression in HCT116 cells; assay type: cell-based, human; conditions: HCT116 WT, 16 μM
Procedure: as §3

HCT116 Bax−/− cells [5] = test: Anchorage-independent growth (soft agar) assay; assay type: cell-based, human; conditions: soft agar 14 days
Procedure: (§6) Anchorage-independent growth (soft agar assay) in soft agar was carried out as described in inventors' previous studies (1.25). Briefly, 1×10^4 cells mixed with various concentration of Compound X in 10% FBS BME containing 0.33% soft agar, was seeded over bottom layer of 0.5% agar in 10% FBS BME in each well of 6-well plates. […]

HCT116 Bax−/− cells [6] = test: Flow cytometry assay with propidium iodide staining (apoptosis); assay type: cell-based, human; conditions: 48 h
Procedure: as §1

HCT116 p53−/− cells = test: as above; assay type: cell-based, human; conditions: 48 h
Procedure: as §1

HCT116 p21−/− cells = test: as above; assay type: cell-based, human; conditions: 32 μM, 48 h
Procedure: as §1

p21 promoter = test: p21 promoter-driven luciferase reporter in Cl41 cells; assay type: cell-based, mouse; conditions: Cl41, 16 μM, time-dependent
AKT = test: Western blot, AKT phosphorylation in HCT116 cells; assay type: cell-based, human; conditions: HCT116, 16 μM
Procedure: as §3, §4

HCT116 cells = test: Anchorage-independent growth (soft agar) assay; assay type: cell-based, human; conditions: HCT116, 16 and 32 μM, soft agar 2 weeks
Procedure: as §6
(§7) Anchorage-independent growth (soft agar assay) in soft agar was carried out as described in Example 1.

DLD-1 cells [7] = test: Anchorage-independent growth (soft agar) assay; assay type: cell-based, human; conditions: DLD-1 (p53 mutant), 16, 32 μM, soft agar 2 weeks
Procedure: as §6, §7

HCT116 PUMA−/− cells [8] = test: Anchorage-independent growth (soft agar) assay; assay type: cell-based, human; conditions: HCT116 PUMA−/−, 16, 32 μM, soft agar 2 weeks
Procedure: as §6, §7

HT-29 cells [9] = test: Anchorage-independent growth (soft agar) assay; assay type: cell-based, human; conditions: HT-29 (p53 mutant), 16, 32 μM, soft agar 2 weeks
Procedure: as §6, §7

p53 = test: p53-luciferase reporter (PG13-luc) in Cl41 cells; assay type: cell-based, mouse; conditions: Cl41, 16 μM
caspase-3 and PARP = test: Western Blotting, cleavage of caspase 3 and PARP; assay type: cell-based, human; conditions: 16 μM, colon cancer cells
Procedure: as §3

p21 and p53 = test: Western Blot, p21 and p53 expression in Cl41 cells; assay type: cell-based, mouse; conditions: Cl41, 2 to 32 μM, 24 hours
Procedure: as §3, §4

Cl41 cells [10] = test: EGF-induced cell transformation assay in soft agar; assay type: cell-based, mouse; conditions: Cl41, 20 ng/ml EGF, dose-dependent
Procedure: Anchorage-independent growth in soft agar was performed as described previously (3.15). Briefly, 2×10^4 cells mixed with various concentration of Compound X and 20 ng/ml EGF in 10% FBS […] (BMEM) containing 0.33% soft agar, was seeded over bottom layer of 0.5% agar in 10% FBS BMEM in each well of 6-well plates. The plates were incubated in 5% CO2 incubator at 37° C. for 3 weeks, and the colonies with more than 16 cells of each were scored and presented as colonies/1×10^4 cells.

puma promoter = test: PUMA promoter-driven luciferase reporter assay in HCT116 cells; assay type: cell-based, human; conditions: HCT116, 16 μM
Procedure: as §5

leukemia cell = conditions: involving activation of caspase-3 and downregulation of Bcl-2 mRNA; cited from earlier work
[11] = mice; cited from earlier work

CC(=O)O[C@H]1C=CC(=O)O[C@H]1[C@@H](O)[C@H](F)c1ccccc1 [Compound F2]
sub-G1 DNA content (apoptotic peak) vs vehicle control (HCT116 wild-type cells; HCT116, 16 μM or 32 μM): substantial increase in sub-G1 DNA content
cell apoptosis (HCT116 wild-type cells; 16 μM): 18.30%
cell apoptosis (HCT116 wild-type cells; 32 μM): 26.27%
sub-G1 DNA content (apoptotic peak) vs vehicle control (DLD-1 cells [1]): substantial increase in sub-G1 DNA content
sub-G1 DNA content (apoptotic peak) vs vehicle control (HT-29 cells [2]): substantial increase in sub-G1 DNA content
PUMA protein induction, time (PUMA): ≤ 12 h
PHLPP1 protein expression (PHLPP1): upregulated
inhibition at 16 µM (HCT116 PUMA−/− cells [3]): > 90%
FoxO3a transactivation (FoxO3a): significantly induced FoxO3a transactivation
proportion of cells in the G0/G1 phase (Cl41 cells [4]; 8 μM): 77.74%
proportion of cells in the G0/G1 phase (Cl41 cells [4]; 16 μM): 79.79%
proportion of cells in the G0/G1 phase (Cl41 cells [4]; 32 μM): 80.13%
p53, p21 and Bax protein levels (p53, p21 and Bax): increasing as time-dependent manner
colony formation (HCT116 Bax−/− cells [5]): only partially inhibit colony formation
cell apoptosis (HCT116 Bax−/− cells [6]; 16 μM): 1.00%
cell apoptosis (HCT116 Bax−/− cells [6]; 32 μM): 0.69%
cell apoptosis (HCT116 p53−/− cells; 16 μM): 7.41%
cell apoptosis (HCT116 p53−/− cells; 32 μM): 14.18%
cell apoptosis (HCT116 p21−/− cells): 80.31%
p21 promoter transcription activity (p21 promoter): obvious induction of p21 promoter transcription activity
phosphorylation of AKT at Ser 473 (AKT): inhibited after exposure to Compound F2 for 12 h or longer
anchorage-independent growth (size and number of colonies) vs vehicle (HCT116 cells): significantly restrained the size and number of colonies; also recorded: significantly decreased anchorage-independent growth
anchorage-independent growth (DLD-1 cells [7]): inhibit anchorage-independent growth
colony formation, sensitivity vs wild type cells (HCT116 PUMA−/− cells [8]): significantly more resistant
anchorage-independent growth (HT-29 cells [9]): inhibit anchorage-independent growth
p53 transactivation (p53): significantly induced p53 transactivation
cleaved caspases-3 and PARP (caspase-3 and PARP): detected in a time-dependent manner from 24 h to 48 h; also recorded: detected in a time-dependent manner from 6 hours to 48 hours
expression levels of p21 and p53 (p21 and p53): increased
EGF-induced cell transformation and colony formation on soft agar (Cl41 cells [10]): significantly repressed EGF-induced cell transformation and colony formation
puma promoter transcription activity (puma promoter): markedly induction of puma promoter transcription activity

CC(=O)O[C@H]1C=CC(=O)O[C@H]1C1OC1c1ccccc1 (some centres unmarked) [cheliensisin A, Cheliensisin A]
leukemia cell apoptosis (leukemia cell): induced leukemia cell apoptosis
in vivo antitumor effect [11]: potent in vivo antitumor effect
